In patent publication US20240150293A1, “SPIROCYCLOHEXANE DERIVATIVES, PHARMACEUTICAL COMPOSITIONS CONTAINING THEM AND THEIR USES AS ANTI-APOPTOTIC INHIBITORS” (LES LABORATOIRES SERVIER, priority 2021, published 2024):
Read-outs that look alike come from different tables or passages of the source.

Assays:
[1] = target: Mcl-1 protein (UniProtKB Q07820) (Homo sapiens (Human), UniProt Q07820); assay: Inhibition of Mcl-1 by the fluorescence polarisation assay (Example A, Method A); type: binding; conditions: fluorescence polarization assay
Sequence of Mcl-1 protein (Q07820 whole entry): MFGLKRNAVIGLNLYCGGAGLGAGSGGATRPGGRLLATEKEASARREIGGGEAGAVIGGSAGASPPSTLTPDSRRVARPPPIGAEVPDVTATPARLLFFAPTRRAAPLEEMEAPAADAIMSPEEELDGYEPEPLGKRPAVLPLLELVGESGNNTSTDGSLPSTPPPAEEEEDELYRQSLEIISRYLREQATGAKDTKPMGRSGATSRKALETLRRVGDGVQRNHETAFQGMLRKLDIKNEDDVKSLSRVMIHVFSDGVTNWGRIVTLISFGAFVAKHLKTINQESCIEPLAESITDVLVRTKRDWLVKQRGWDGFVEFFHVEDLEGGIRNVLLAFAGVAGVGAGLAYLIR
Outline: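 Protein (5 nM) and fluorescein-tagged peptide tracer (1 nM) incubated with 11-point compound series for 2 h at room temperature in HEPES/NaCl/Tween 20 buffer, pH 7.4, 5% DMSO. Displacement read as decrease in polarisation; IC50 fitted by 4-parameter logistic, converted to Ki (cKi or eKi).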

[2] = test system: H929 multiple myeloma tumor line; assay: In vitro cytotoxicity, MTT assay (Example B, Method A); type: cell-based; conditions: H929 cells, 48 hours exposure, read-out: C50
Experimental: The cytotoxicity studies were carried out on the H929 multiple myeloma tumor line.
The cells are distributed onto microplates and exposed to the test compounds for 48 hours. The cell viability is then quantified by a colorimetric assay, the Microculture Tetrazolium Assay (Carmichael et al, Cancer Res. 1987, 47, 939-942).
The results are expressed in C50 which means concentration corresponding to […] of effect/inhibition.

Ki [1]	SMILES	IC50 ([2]; Homo sapiens, NCI-H929, 48 h)	IC50 [2]
0.22 µM	CC(C)Oc1ccc2c(c1)[C@]1(CC[C@@](Nc3cccc(Cl)c3)(C(=O)O)CC1)C(c1cccc(Oc3ccccc3)c1)C2 (single isomer, unassigned) [Example 387, (1r,4r)-4-(3-chloroanilino)-2′-(3-phenoxyphenyl)-6′-[(propan-2-yl)oxy]-2′,3′-dihydrospiro[cyclohexane-1,1′-indene]-4-carboxylic acid]	9.59 µM	
0.438 µM	C[C@@H](COc1cccnc1)C[C@H]1Cc2ccccc2[C@]12CC[C@@](Nc1cccc(Cl)c1)(C(=O)O)CC2 [Example 568, (1r,2′S,4S)-4-(3-chloroanilino)-2′-{(2R)-2-methyl-3-[(pyridin-3-yl)oxy]propyl}-2′,3′-dihydrospiro[cyclohexane-1,1′-indene]-4-carboxylic acid]	18.3 µM	
1.24 µM	Cc1cccc(C2Cc3ccccc3[C@]23CC[C@@](Nc2cccc(Cl)c2)(C(=O)O)CC3)c1 (single isomer, unassigned) [Example 345, (1r,4r)-4-(3-chloroanilino)-2′-(3-methylphenyl)-2′,3′-dihydrospiro[cyclohexane-1,1′-indene]-4-carboxylic acid]	30 µM	
0.0312 µM	C[C@@H](COc1ccnc2c1CCC2)CC1Cc2ccccc2[C@]12CC[C@@](Nc1ccccc1)(C(=O)O)CC2 (stereo partly drawn) [Example 596, (1r,4R)-4-anilino-2′-{(2R)-3-[(6,7-dihydro-5H-cyclopenta[b]pyridin-4-yl)oxy]-2-methylpropyl}-2′,3′-dihydrospiro[cyclohexane-1,1′-indene]-4-carboxylic acid]	1.82 µM	
2.28 µM	CC(C)C(COc1ccncc1)CC1Cc2ccccc2[C@]12CC[C@@](Nc1cccc(Cl)c1)(C(=O)O)CC2 (single isomer, unassigned) [Example 535, (1r,4r)-4-(3-chloroanilino)-2′-(3-methyl-2-{[(pyridin-4-yl)oxy]methyl}butyl)-2′,3′-dihydrospiro[cyclohexane-1,1′-indene]-4-carboxylic acid]		30 µM
0.0053 µM	C[C@@H](COc1ccnc2c1CCCCC2)C[C@H]1Cc2ccccc2[C@]12CC[C@@](Nc1cccc(Cl)c1)(C(=O)O)CC2 [Example 633, (1r,2′S,4S)-4-(3-chloroanilino)-2′-{(2R)-2-methyl-3-[(6,7,8,9-tetrahydro-5H-cyclohepta[b]pyridin-4-yl)oxy]propyl}-2′,3′-dihydrospiro[cyclohexane-1,1′-indene]-4-carboxylic acid]	0.371 µM	
0.0553 µM	O=C(O)[C@]1(Nc2cccc(Cl)c2)CC[C@@]2(CC1)c1ccccc1CC2CCCOc1ccncc1 (stereo partly drawn) [Example 426, (1r,4r)-4-(3-chloroanilino)-2′-{3-[(pyridin-4-yl)oxy]propyl}-2′,3′-dihydrospiro[cyclohexane-1,1′-indene]-4-carboxylic acid]	16.5 µM	
0.0754 µM	O=C(O)[C@]1(Nc2cccc(Cl)c2)CC[C@@]2(CC1)c1ccccc1CC2CCCOc1ncncc1C1CC1 (mixture of isomers) [Example 465, (1r,4r)-4-(3-chloroanilino)-2′-{3-[(5-cyclopropylpyrimidin-4-yl)oxy]propyl}-2′,3′-dihydrospiro[cyclohexane-1,1′-indene]-4-carboxylic acid]	9.6 µM	
0.293 µM	CC(C)C(COc1ccnc2ccsc12)CC1Cc2ccccc2C12CCC(Nc1cccc(Cl)c1)(C(=O)O)CC2 (stereo not drawn) [Example 525, (1r,4r)-4-(3-chloroanilino)-2′-(3-methyl-2-{[(thieno[3,2-b]pyridin-7-yl)oxy]methyl}butyl)-2′,3′-dihydrospiro[cyclohexane-1,1′-indene]-4-carboxylic acid]		2.49 µM
0.11 µM	O=C(O)[C@]1(Nc2cccc(Cl)c2)CC[C@@]2(CC1)c1ccccc1C[C@@H]2C[C@@H](COc1ccncc1)c1ccccc1 [Example 552, (1r,2′S,4S)-4-(3-chloroanilino)-2′-{(2R)-2-phenyl-3-[(pyridin-4-yl)oxy]propyl}-2′,3′-dihydrospiro[cyclohexane-1,1′-indene]-4-carboxylic acid]	3.38 µM	
0.276 µM	O=C(O)[C@]1(Nc2cccc(Br)c2)CC[C@@]2(C=Cc3c(Br)cccc32)CC1 [Example 60, (1r,4r)-4′-bromo-4-(3-bromoanilino)spiro[cyclohexane-1,1′-indene]-4-carboxylic acid]	30 µM	
0.0443 µM	O=C(O)[C@]1(Nc2cccc(Cl)c2)CC[C@]2(CC1)C(CCOc1ccncc1F)=Cc1ccccc12 [Example 190, (1r,4r)-4-(3-chloroanilino)-2′-{2-[(3-fluoropyridin-4-yl)oxy]ethyl}spiro[cyclohexane-1,1′-indene]-4-carboxylic acid]	6.4 µM	
5.28 µM	O=C(O)[C@]1(Nc2cccc(Cl)c2)CC[C@@]2(CC1)c1ccccc1C[C@H]2C[C@H](COc1cccnc1)c1ccccc1 [Example 550, (1r,2′R,4R)-4-(3-chloroanilino)-2′-{(2S)-2-phenyl-3-[(pyridin-3-yl)oxy]propyl}-2′,3′-dihydrospiro[cyclohexane-1,1′-indene]-4-carboxylic acid]	30 µM	
0.0852 µM	O=C(O)[C@]1(Nc2cccc(Cl)c2)CC[C@@]2(CC1)c1ccccc1CC2CCCOc1ccnc2ccccc12 (stereo partly drawn) [Example 444, (1r,4r)-4-(3-chloroanilino)-2′-{3-[(quinolin-4-yl)oxy]propyl}-2′,3′-dihydrospiro[cyclohexane-1,1′-indene]-4-carboxylic acid]	5.44 µM	
0.227 µM	O=C(O)[C@]1(Nc2cccc(Cl)c2)CC[C@]2(CC1)C(c1cccc(OCc3cccnc3)c1)=Cc1ccccc12 [Example 363, (1s,4s)-4-(3-chloroanilino)-2′-{3-[(pyridin-3-yl)methoxy]phenyl}spiro[cyclohexane-1,1′-indene]-4-carboxylic acid]	30 µM	
9.29 µM	Cc1cccc(C2Cc3ccccc3[C@]23CC[C@@](Nc2cccc(Cl)c2)(C(=O)O)CC3)c1 (single isomer, unassigned) [Example 346, (1r,4r)-4-(3-chloroanilino)-2′-(3-methylphenyl)-2′,3′-dihydrospiro[cyclohexane-1,1′-indene]-4-carboxylic acid]		30 µM
0.0697 µM	O=C(O)[C@]1(Nc2cccc(Cl)c2)CC[C@]2(CC1)C(CCOc1ccnc(F)c1)=Cc1ccccc12 [Example 191, (1r,4r)-4-(3-chloroanilino)-2′-{2-[(2-fluoropyridin-4-yl)oxy]ethyl}spiro[cyclohexane-1,1′-indene]-4-carboxylic acid]	5.72 µM	
0.0145 µM	C[C@@H](COc1ncnc2c1CCC2)CC1Cc2ccccc2[C@]12CC[C@@](Nc1cccc(Cl)c1)(C(=O)O)CC2 (stereo partly drawn) [Example 593, (1r,4R)-4-(3-chloroanilino)-2′-{(2R)-3-[(6,7-dihydro-5H-cyclopenta[d]pyrimidin-4-yl)oxy]-2-methylpropyl}-2′,3′-dihydrospiro[cyclohexane-1,1′-indene]-4-carboxylic acid]	2.01 µM	
1.86 µM	CC(C)C(COc1cccnc1)CC1Cc2ccccc2[C@]12CC[C@@](Nc1cccc(Cl)c1)(C(=O)O)CC2 (single isomer, unassigned) [Example 526, (1r,4r)-4-(3-chloroanilino)-2′-(3-methyl-2-{[(pyridin-3-yl)oxy]methyl}butyl)-2′,3′-dihydrospiro[cyclohexane-1,1′-indene]-4-carboxylic acid]	30 µM	
0.81 µM	CC(C)COc1ccc2c(c1)[C@]1(CC[C@@](Nc3cccc(Cl)c3)(C(=O)O)CC1)C(c1cccc(Oc3ccccc3)c1)C2 (single isomer, unassigned) [Example 385, (1r,4r)-4-(3-chloroanilino)-6′-(2-methylpropoxy)-2′-(3-phenoxyphenyl)-2′,3′-dihydrospiro[cyclohexane-1,1′-indene]-4-carboxylic acid]	18.9 µM	
2.1 µM	CC[C@H](COc1ccnc2ccsc12)C[C@@H]1Cc2ccccc2[C@]12CC[C@@](Nc1cccc(Cl)c1)(C(=O)O)CC2 [Example 536, (1r,2′R,4R)-4-(3-chloroanilino)-2′-[(2S)-2-{[(thieno[3,2-b]pyridin-7-yl)oxy]methyl}butyl]-2′,3′-dihydrospiro[cyclohexane-1,1′-indene]-4-carboxylic acid]	17.2 µM	
6.36 µM	CC(C)C(COc1ccnc2ccsc12)CC1Cc2ccccc2[C@]12CC[C@@](Nc1cccc(Cl)c1)(C(=O)O)CC2 (single isomer, unassigned) [Example 522, (1r,4r)-4-(3-chloroanilino)-2′-(3-methyl-2-{[(thieno[3,2-b]pyridin-7-yl)oxy]methyl}butyl)-2′,3′-dihydrospiro[cyclohexane-1,1′-indene]-4-carboxylic acid]	17.1 µM	
0.0743 µM	CNc1cccc(OC[C@H](C)C[C@H]2Cc3ccccc3[C@]23CC[C@@](Nc2cccc(Cl)c2)(C(=O)O)CC3)c1 [Example 569, (1r,2′S,4S)-4-(3-chloroanilino)-2′-{(2R)-2-methyl-3-[3-(methylamino)phenoxy]propyl}-2′,3′-dihydrospiro[cyclohexane-1,1′-indene]-4-carboxylic acid]	1.72 µM	
0.0654 µM	Cc1cnccc1OCCC[C@@H]1Cc2ccccc2[C@]12CC[C@@](Nc1cccc(Cl)c1)(C(=O)O)CC2 [Example 448, (1r,2′R,4R)-4-(3-chloroanilino)-2′-{3-[(3-methylpyridin-4-yl)oxy]propyl}-2′,3′-dihydrospiro[cyclohexane-1,1′-indene]-4-carboxylic acid]	10.5 µM	
